Source: ChEMBL document CHEMBL5727632, “Substituted 1H-imidazo[4,5-b]pyridin-2(3H)-ones and their use as GluN2B receptor modulators” (2020)

Molecular target: Glutamate receptor ionotropic, NMDA 2B (Homo sapiens, UniProt Q05586+Q13224)
Assay: Standard cell-based calcium flux assay: NMDA receptors are ion channels that are highly permeable to Ca2+ ions, rendering it possible to monitor NMDA receptor function using cell-based calcium flux assay. In this assay, co-agonists glutamate and glycine are added to cells heterologously expressing human GluN1/GluN2B NMDA receptors to initiate cellular Ca2+ influx. The time course of the changes in intracellular calcium is measured using a fluorescent dye and a FLIPR (Fluorometric Imaging Plate Reader) device.Twenty four hours before measurements, the expression of the NMDA receptors in the stable cell line is induced with Tet-On inducible system in the presence of a non-selective NMDA receptor blocker. On the day of the experiment, cell culture media is carefully washed and the cells are loaded with Calcium 5 Dye Kit (Molecular Devices) in dye loading buffer containing 137 mM NaCl, 4 mM KCl, 2 mM CaCl2, 0.5 mM MgCl2 (standard assay) or 1.5 mM MgCl2 (HTS assay), 10 mM HEPES and 5 mM D-glucose; pH 7.4. […]

Sequence of Glutamate receptor ionotropic, NMDA 2B (Q13224 whole entry, one chain of several): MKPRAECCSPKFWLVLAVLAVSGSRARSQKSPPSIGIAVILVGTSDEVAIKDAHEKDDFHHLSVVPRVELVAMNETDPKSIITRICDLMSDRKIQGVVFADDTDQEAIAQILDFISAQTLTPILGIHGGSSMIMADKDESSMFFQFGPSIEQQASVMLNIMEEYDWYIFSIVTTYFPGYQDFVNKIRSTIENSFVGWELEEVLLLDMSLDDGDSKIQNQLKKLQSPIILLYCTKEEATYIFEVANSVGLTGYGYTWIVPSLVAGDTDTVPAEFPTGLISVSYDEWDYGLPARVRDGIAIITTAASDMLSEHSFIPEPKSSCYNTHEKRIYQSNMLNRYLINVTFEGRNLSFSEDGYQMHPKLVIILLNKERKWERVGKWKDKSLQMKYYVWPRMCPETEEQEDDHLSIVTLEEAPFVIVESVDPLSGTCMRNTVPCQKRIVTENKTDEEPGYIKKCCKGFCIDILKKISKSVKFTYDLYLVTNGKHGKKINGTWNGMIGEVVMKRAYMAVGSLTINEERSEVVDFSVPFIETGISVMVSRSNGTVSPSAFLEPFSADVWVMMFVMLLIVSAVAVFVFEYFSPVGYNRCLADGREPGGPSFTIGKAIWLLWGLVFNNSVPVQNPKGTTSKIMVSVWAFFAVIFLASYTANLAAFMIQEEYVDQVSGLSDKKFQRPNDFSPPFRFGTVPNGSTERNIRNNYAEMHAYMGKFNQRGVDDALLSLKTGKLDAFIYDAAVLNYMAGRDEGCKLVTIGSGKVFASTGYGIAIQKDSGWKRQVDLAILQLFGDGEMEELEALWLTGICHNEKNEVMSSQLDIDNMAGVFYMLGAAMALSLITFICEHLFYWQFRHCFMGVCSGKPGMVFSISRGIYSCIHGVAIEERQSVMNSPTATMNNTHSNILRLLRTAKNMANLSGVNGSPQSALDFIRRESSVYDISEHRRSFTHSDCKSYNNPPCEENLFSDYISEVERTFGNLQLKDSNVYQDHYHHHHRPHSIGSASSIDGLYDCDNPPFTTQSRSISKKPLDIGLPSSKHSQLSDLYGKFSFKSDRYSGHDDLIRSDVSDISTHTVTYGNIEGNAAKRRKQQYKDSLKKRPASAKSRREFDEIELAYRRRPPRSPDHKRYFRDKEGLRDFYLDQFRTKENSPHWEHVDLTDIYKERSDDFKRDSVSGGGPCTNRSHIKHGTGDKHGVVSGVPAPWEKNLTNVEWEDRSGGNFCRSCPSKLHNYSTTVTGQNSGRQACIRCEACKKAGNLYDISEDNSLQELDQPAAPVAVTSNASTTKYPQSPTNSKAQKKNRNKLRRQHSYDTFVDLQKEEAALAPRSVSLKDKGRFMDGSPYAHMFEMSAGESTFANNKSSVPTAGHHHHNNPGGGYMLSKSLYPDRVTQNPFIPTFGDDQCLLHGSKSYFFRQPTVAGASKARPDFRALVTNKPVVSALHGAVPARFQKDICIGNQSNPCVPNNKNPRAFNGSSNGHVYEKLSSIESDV

## Cn1c(=O)n(CC(=O)N2CCC2)c2cc(-c3cc(OCCF)cc(C(F)(F)F)c3)cnc21
  IC50: 1290 nM
